{"source": "paper PMC11571215", "about": "“Optimization of Antiproliferative Properties of Triimine Copper(II) Complexes” (Journal of Medicinal Chemistry, 2024)", "key": {"HCT116-DoxR cells": {"test_system": "HCT116-DoxR cells", "assay": "Mitochondrial membrane potential (JC-1, flow cytometry)", "format": "cell-based, human", "settings": "48 h; complexes at IC50, Dox 6 μM, Cis 5 μM; normalized to DMSO", "quoted_text": "Changes in membrane potential can be measured and represent an essential parameter, indicating the functional state of the mitochondria. For this analysis, the lipophilic cationic probe 5,5′,6,6′-tetrachloro-1,1′,3,3′-tetraethylbenzimidazolylcarbocyanine iodide (JC-1) was used, allowing the evaluation of depolarization or hyperpolarization of the mitochondrial membrane.[72] In healthy cells, JC-1 accumulates inside the electronegative mitochondria as aggregates (red fluorescence) when the membrane potential is positively charged (hyperpolarized).[71] However, when depolarization of the mitochondrial membrane potential occurs, the JC-1 probe will accumulate outside of the mitochondria in its monomeric form (green fluorescence), therefore causing a decrease in the ratio of JC-1 aggregate/monomer fluorescence intensity.[61],[71] […] Subsequently, the cells were stained with the JC-1 probe and subjected to flow cytometry analysis to confirm potential alterations in the mitochondrial membrane potential induced by the complexes. […]\nThe mitochondrial membrane potential (ΔΨM) was evaluated by using the JC-1 Mitochondrial Membrane Potential Assay Kit (Abnova Corporation, Walnut, California, USA). […] The samples were then analyzed in the Attune Acoustic Focusing Flow Cytometer (Life Technologies, Carlsbad, CA, USA) and results were processed with Attune Cytometric software."}, "calf-thymus DNA (ctDNA)": {"test_system": "calf-thymus DNA (ctDNA)", "assay": "Ethidium bromide displacement assay", "format": "binding", "settings": "for Ksv (Stern-Volmer constant): ctDNA-EB adduct in PBS buffer, EB 50 μM", "excerpt": "Compounds that intercalate between DNA base pairs equally or more strongly than EB replace it from the adduct ctDNA-EB, which results in a noticeable decrease or quenching of the fluorescence emission. […] For both Cu1a and Cu1b, the decrease in the fluorescence intensity of ctDNA-EB with increasing complex concentrations fulfills the linear Stern–Volmer equation (eq 3)[90]: [drawing 6] 3\nThe apparent binding constants (Kapp) are estimated using eq 4: [drawing 7] 4 (where KEB = 1.0 × 10^7 M^–1, [EB] is the EB concentration (50 μM), [Q50] is the complex concentration at 50% reduction of EB fluorescence intensity, estimated based on the linear Stern–Volmer plot for I^0/I = 2). Kapp is equal to 1.75 × 10^5 M^–1 for Cu1a and 2.35 × 10^6 M^–1 for Cu1b. […] Nevertheless, both Cu(II) complexes show rather moderate ability to replace EB from the adduct with ctDNA.[21]\nEthidium bromide (EB) and calf-thymus DNA (ctDNA) were purchased from Sigma-Aldrich and Thermo Fisher Scientific, respectively. Prior to experiments, a solution containing 10 mg/mL of ctDNA in DNase-free and RNase-free distilled, deionized water was spectroscopically monitored at 260 nm and at 280 nm to determine the concentration and check the purity.\nThe ethidium bromide (EB) fluorescence displacement assay was carried out using a Hitachi F-7000 spectrofluorometer. An equimolar amount (50 μM) of EB solution was added to ctDNA solution at room temperature, followed by 2 h incubation in the dark. The compound was then titrated into the EB–ctDNA mixture, well mixed, and allowed to stand for 30 min. The concentrations of the complexes varied from 0 to 40 μM."}, "[1]": {"test_system": "primary dermal fibroblasts", "assay": "Cell migration (wound healing) assay", "format": "cell-based, human", "settings": "24 h; complexes at IC50, Dox 6 μM; DMSO control 100%", "description": "Cellular migration is the individual movement of cells from one location to another.[96] This migratory process is an integral part of both the metastatic process and wound healing.[54] […] The in vitro wound healing assay is highly used to understand how the complexes affect cellular migration by measuring the closure of a gap previously created in the cell culture plate. […] Additionally, cells were subjected to the vehicle control of 0.1% DMSO and the positive control of Dox (6 μM), and the percentage of remission/regeneration was calculated (Figure 18).\nFibroblasts were seeded in 24-well plates at a cell density of 4 × 10^5 cells/mL. The plates were incubated for 24 h under the same conditions described before until a confluent cell monolayer was obtained. […] The cells were incubated at 37 °C for 48 h. The plates were photographed under an inverted microscope (Nikon TMS, Nikon Instruments, Tokyo, Japan) at 4× magnification (immediately after exposure to the complexes (0 h), 24, and 48 h following exposure)."}, "[2]": {"test_system": "chicken embryo chorioallantoic membrane", "assay": "Ex-ovo CAM assay: in vivo toxicity and angiogenic potential", "settings": "IC50 concentrations; for angiogenic potential (tertiary veins): 24 h, normalized to DMSO; for in vivo toxicity (embryo death): chicken embryo", "excerpt": "The ex-ovo Chorioallantoic Membrane (CAM) assay has become a preclinical model of choice for assessing the cytotoxicity of Cu(II) complexes and in vivo angiogenesis.[38] The CAM is an extraembryonic membrane formed by mesodermal layers, highly vascularized despite being compromised, making it ideal for studying angiogenesis and antiangiogenesis in response to biomolecules and drugs.[97] […] In these assays, highly vascularized regions surrounded by O-rings on the chorioallantoic membrane of chicken embryos were studied. […] Eight embryos were used as biological replicates. Images were taken immediately after exposure to the complexes and control (0 h) and 24 h later. The values were normalized to the number of tertiary veins after exposure to the DMSO control and are represented in Figures 19 and S25.\nTo assess the angiogenic potential of the copper complexes, an ex-ovo CAM (chick chorioallantoic membrane) in vivo model using chicken eggs was performed. Fertilized eggs were opened, and the embryos and blood vessels were stabilized for 24 h in an incubator at 37 °C in perforated individual weighing boxes. After incubation, 4 silicone O-rings were placed on areas with a high number of blood vessels. […] The area limited by each O-ring was photographed immediately after the addition of the complexes and after 24 and 48 h of incubation at 37 °C. The images were captured with a digital USB microscope camera (Opti-Tekscope OT-V1). Image analysis was performed using ImageJ software."}}, "data": [{"smiles": "[Cl][Cu-3]12([Cl])[n+]3ccccc3-c3cc(-c4ccc5ccccc5c4)cc([n+]31)-c1cccc[n+]12", "note": "[Cu1b]", "values": [{"measurement": "JC-1 red/green fluorescence ratio (aggregate/monomer)", "setting": "HCT116-DoxR cells", "value": 0.88}, {"measurement": "Ksv (Stern-Volmer constant)", "setting": "calf-thymus DNA (ctDNA)", "value": "4.7 × 10^3 M^–1"}, {"measurement": "apparent binding constant Kapp", "setting": "calf-thymus DNA (ctDNA); eq 4, KEB = 1.0 × 10^7 M^–1, [EB] 50 μM", "value": "2.35 × 10^6 M^–1"}, {"measurement": "percentage of remission/regeneration of the wound", "setting": "[1]", "value": 69, "unit": "%"}, {"measurement": "angiogenic potential (tertiary veins)", "setting": "[2]", "value": "did not show significant pro- or antiangiogenic properties"}, {"measurement": "in vivo toxicity (embryo death)", "setting": "[2]", "value": "do not show in vivo toxicity in a chicken embryo"}]}, {"smiles": "COc1cccc2c1C(=O)c1c(O)c3c(c(O)c1C2=O)C[C@@](O)(C(=O)CO)C[C@@H]3O[C@H]1C[C@H](N)[C@H](O)[C@H](C)O1", "note": "[Doxorubicin]", "values": [{"measurement": "percentage of remission/regeneration of the wound", "setting": "[1]", "value": 68, "unit": "%"}]}, {"smiles": "[Cl][Cu-3]12([Cl])[n+]3ccccc3-c3cc(-c4cccc5ccccc45)cc([n+]31)-c1cccc[n+]12", "note": "[Cu1a]", "values": [{"measurement": "JC-1 red/green fluorescence ratio (aggregate/monomer)", "setting": "HCT116-DoxR cells", "value": "approximately 0.79"}, {"measurement": "Ksv (Stern-Volmer constant)", "setting": "calf-thymus DNA (ctDNA)", "value": "3.8 × 10^3 M^–1"}, {"measurement": "percentage of remission/regeneration of the wound", "setting": "[1]", "value": "approximately 66%"}, {"measurement": "angiogenic potential (tertiary veins)", "setting": "[2]", "value": "did not show significant pro- or antiangiogenic properties"}, {"measurement": "in vivo toxicity (embryo death)", "setting": "[2]", "value": "do not show in vivo toxicity in a chicken embryo"}]}]}
